{"source": "patent US20030095982A1", "about": "“Fraction of Cordyceps sinensis and method of isolation thereof” (priority 2001, published 2003)", "key": {"[1]": {"assay": "Ames test", "type": "cell-based", "experimental": "B: Compound F8: This refers to F8 (for spectroscopic and structural data, see FIG. 2a, 2b, and 3). The molecular formula of compound F8 is C28H46O3. To confirm the potential applicability of the above fractions and to check for obvious toxicity or mutagenicity, Ames test and acute toxicity test were conducted on white mice (ICR-mice) using the F4 fraction or compound F8."}, "[2]": {"system": "ovalbumin (OA) induced bronchial hyperresponsiveness", "assay": "Pulmonary function test, OA induced bronchial hyperresponsiveness in BNR", "type": "in vivo, brown Norway rats (BNR)", "description": "The requirements for animal models include both specificity and the capacity for developing pulmonary histopathological lesions that are similar to those found in the corresponding human disorders. In view of the above considerations, three kinds of animal models were adopted for the experiments used in developing this invention. Two were invasive method and one was non-invasive method. The first and second invasive models were BNR and guinea pig asthma model induced by ovalbumin (OA). Twenty four either BNR (weight ranging from 250˜350 g) or guinea pig (380˜500 g) were divided into three groups. Each group consisted of 8 weight-matched male animals. Both group I and group II BNR were put into a closed chamber (30×30×16 cm plastic box) with two small holes, one serving as a gas inlet and the other as a gas outlet. Two mL of 1% OA was aerosolized by nebulizer and delivered continuously into the closed chamber with a gas delivery flow of 8 l/min. The animal was exposed to OA in the chamber for 10 minutes.\nA second sensitization was performed 7 days later using the same procedure. Another 7 days later, a provocation test was performed. To prevent anaphylaxis and possible death, the animals were pretreated with pyrinamine (10 mg/kg) intraperitoneally 30 minutes before the test. For provocation, the BNR inhaled 3 mL of 4% aerosolized OA by nebulizer for 10 minutes in a closed chamber, using the same procedure as for sensitization. Group I BNR or guinea pig were given Cordyceps sinensis active fraction F-4 4 mg/kg intraperitoneally 30 minutes before OA inhalation provocation. Group II control animals were treated in the same way as […], except that they were sensitized and challenged by breathing aerosolized saline instead of OA and without Cordyceps sinensis pretreatment.\nIn the Cordyceps sinensis treatment study, the protocol is similar to pretreatment except F-4 is administed after OA inhalation provocation.\nFor the lung function and acetylcholine provocation portion of the study, all animals were anesthetized with sodium pentobarbitone (50 mg/kg intraperitoneally). Jugular vein cannulation (PE-10 polyethylene tube filled with heparin, 1000 iu/mL in normal saline) and tracheostomy were performed. Lung function test was done 24 hours after the OA provocation test. The BNRs or pignea pigs were put in a body box (Model 6 Body Box, Buxco, Troy, N.Y., USA) in a supine position while the mice were put in a body box for mice (Anesthetized Body Box for Mice, Buxco, Troy, N.Y., USA). Gallamine triethiodide (4 mg/kg) was intravenously injected to induce paralysis and inhibit spontaneous breathing. A small animal ventilator set at a tidal volume of 6 mL/kg and a respiratory rate of 60 times/minute for the BNRs, 120 times/minute for the mice was used to ventilate the small animals. All animals were stable without spontaneous breathing 5 minutes after gallamine was given. Pulmonary function tests (PET) as described below were measured at baseline. Therefore, 25, 50, 75 and 100 μg/kg of acetylcholine (Ach) were given intravenously at 30 minute intervals. PETs were done 5 seconds after each dose of acetylcholine. Before each successive dose of Ach, the flow volume loop returned to baseline.\nThe airway opening pressure (PaO) was measured by a Gould pressure transducer at the tracheotomy. Respiratory flow was measured by a DP-45-14 differential pressure transducer. When tidal breathing was examined, 3-layer 325-mesh wire screen was used to measure the pressure difference. When a maximal forced expiratory maneuver (MFEM) was performed, a 6-layer 325-mesh wire screen was used to measure the pressure difference.\nFor the MFEM, the lungs were inflated to total lung capacity 9TLC, lung volume at PaO=35 cm H2O) 3 times; the inflation was regulated by a solenoid valve. At peak volume during the third inflation, the inflation valve was shut off and another solenoid valve was opened immediately for deflation. […]"}, "[3]": {"system": "ovalbumin (OA) induced bronchial hyperresponsiveness", "assay": "Bronchoalveolar lavage cell counts, OA model in BALBc mice", "type": "in vivo", "experimental": "After completion of the pulmonary function tests, BAL was performed using 1 mL normal saline twice (total 2 mL). The BAL fluid was collected into plastic flasks containing 1,500 units of heparin and then strained through 1 layer of surgical gauze and centrifuged at 500 g for 5 min. The cell pellet was washed 3 times with sterile saline solution and resuspended in RPMI-1640. A small portion was taken for evaluation of cell number and viability, as assessed by trypan blue exclusion.\nDifferential counts were obtained using a cytocentrifuge preparation (Cytospin; Shandon Southern Instruments, Sewickley, Pa.) stained with Liu's stain (modified May-Giemsa stain)."}, "[4]": {"settings": "baseline, 4 mg/Kg intraperitoneally 30 minutes before OA inhalation provocation, mean±SD"}, "[5]": {"settings": "pretreated before OA inhalation provocation (group I) vs OA-treated (group II), Ach doses higher than 25 μg/kg"}, "[6]": {"settings": "BAL fluid, BALBc mice, 4 mg/Kg intraperitoneally 30 minutes before OA inhalation provocation"}}}
{"molecule": "CC(C)[C@@H](C)C=C[C@@H](C)[C@H]1CC[C@H]2C3=C[C@@H](O)[C@@]4(O)C[C@@H](O)CC[C@]4(C)[C@H]3CC[C@]12C", "note": "[F8, (24R)-ergosta-7,22-diene-3β, 5α, 6β,-triol]", "values": [{"measurement": "mutagenicity (Ames test)", "setting": "[1]", "value": "no obvious evidence of toxicity or mutagenic properties"}, {"measurement": "Cdyn (total dynamic lung compliance)", "setting": "[2]; [4]", "value": "0.53 ± 0.05", "unit": "mL/cm H2O"}, {"measurement": "MFEF 25%", "setting": "[2]; [4]", "value": "35.3 ± 4.5", "unit": "mL/s"}, {"measurement": "MFEF 50%", "setting": "[2]; [4]", "value": "75.7 ± 4.6", "unit": "mL/s"}, {"measurement": "MFEF 75%", "setting": "[2]; [4]", "value": "101.5 ± 4.9", "unit": "mL/s"}, {"measurement": "PaO (airway opening pressure at tidal breathing)", "setting": "[2]; [4]", "value": "4.3 ± 0.6", "unit": "cmH2O"}, {"measurement": "Peak flow", "setting": "[2]; [4]", "value": "105.6 ± 4.7", "unit": "mL/s"}, {"measurement": "Total lung capacity", "setting": "[2]; [4]", "value": "15.4 ± 1.5", "unit": "mL"}, {"measurement": "percentage of baseline MFEF 25% TLC, Ach dose response", "setting": "[2]; [5]", "value": "group II was significantly lower then group I"}, {"measurement": "percentage of baseline MFEF 50% TLC, Ach dose response", "setting": "[2]; [5]", "value": "group II was significantly lower then group I"}, {"measurement": "PD20 Ach (dose of Ach producing a 20% drop) for MFEF 50% and MFEF 25%", "setting": "[2]; treatment study (administered after OA inhalation provocation), group I vs OA-treated group II", "value": "significantly (p<0.001) lower in group II than in the other 2 groups"}, {"measurement": "Eosinophil Cell count", "setting": "[3]; [6]", "value": "0.12 ± 0.04 (×10^4)/mL"}, {"measurement": "Eosinophil Percentage of total cell count (%)", "setting": "[3]; [6]", "value": "6.3 ± 1.6", "unit": "%"}, {"measurement": "Lymphocyte Cell count", "setting": "[3]; [6]", "value": "0.10 ± 0.04 (×10^4)/mL"}, {"measurement": "Lymphocyte Percentage of total cell count (%)", "setting": "[3]; [6]", "value": "5.2 ± 1.6", "unit": "%"}, {"measurement": "Macrophage Cell count", "setting": "[3]; [6]", "value": "1.82 ± 0.21 (×10^4)/mL"}, {"measurement": "Macrophage Percentage of total cell count (%)", "setting": "[3]; [6]", "value": "84.2 ± 3.4", "unit": "%"}, {"measurement": "Neutrophil Cell count", "setting": "[3]; [6]", "value": "0.13 ± 0.03 (×10^4)/mL"}, {"measurement": "Neutrophil Percentage of total cell count (%)", "setting": "[3]; [6]", "value": "5.1 ± 1.0", "unit": "%"}, {"measurement": "Total cell count", "setting": "[3]; [6]", "value": "2.23 ± 0.64 (×10^4)/mL"}, {"measurement": "BAL total cell counts, eosinophils and lymphocytes versus group II", "setting": "[3]; mice, treatment study (administered after OA challenge)", "value": "Group II had higher total cell counts than other 2 groups"}]}
